Laboratory results published in ChEMBL document CHEMBL1153023, “Lathyrane diterpenes from Euphorbia lathyris as modulators of multidrug resistance and their crystal structures” (Bioorg Med Chem, 2009).

Key:
MCF7/ADM = assay: Reversal of p-gp-mediated multidrug-resistance in human MCF7/ADM cells assessed as enhancement intensity at 10 ug/mL after 48 hrs by SRB assay relative to adriamycin; format: cell-based
[1] = Octanol-water partition coefficient, log P of the compound; format: physicochemical
MCF/ADR = assay: Reversal of P-gp-mediated multidrug resistance in human MCF/ADR cells assessed as reversal fold after 48 hrs by SRB assay relative to control; format: cell-based
[2] = Reversal of p-gp-mediated multidrug-resistance in human MCF7/ADM cells after 48 hrs by SRB assay; format: cell-based
MCF7 = assay: Cytotoxicity against human MCF7 cells after 48 hrs by SRB assay; format: cell-based; settings: mcf7, 48 h

Row | Structure (SMILES) | Activity (MCF7/ADM) | logP [1] | Ratio IC50 (MCF/ADR) | IC50 [2] | Activity (MCF7)
1 | C=C1CC[C@H]2[C@@H](/C=C(\C)C(=O)[C@@]3(OC(C)=O)C[C@H](C)[C@H](OC(=O)c4ccccc4)[C@@H]3[C@H]1OC(C)=O)C2(C)C | 25% | 6.4 | 6.57 | 165 µg/mL | –
2 | CC(=O)OC/C1=C/[C@H]2[C@@H](OC(=O)/C=C/c3ccccc3)[C@@H](C)C[C@]2(OC(C)=O)C(=O)/C(C)=C/[C@@H]2[C@H](CC1)C2(C)C (relative stereo) | 54% | 5.8 | 10.3 | 105 µg/mL | Not Active
3 | COc1ccc(CCN(C)CCCC(C#N)(c2ccc(OC)c(OC)c2)C(C)C)cc1OC (configuration not stated) [VERAPAMIL] | 19% | – | 2.95 | 367 µg/mL | –
4 | CC(=O)O[C@@H]1[C@H]2[C@@H](OC(=O)Cc3ccccc3)[C@@H](C)C[C@]2(OC(C)=O)C(=O)/C(C)=C/[C@@H]2[C@H](CC[C@]13CO3)C2(C)C | 22% | 5.6 | 4.4 | 246 µg/mL | Not Active
5 | C=C1[C@@H](OC(=O)c2ccccc2)C[C@H]2[C@@H](/C=C(\C)C(=O)[C@@]3(OC(C)=O)C[C@H](C)[C@H](OC(=O)c4ccccc4)[C@@H]3[C@H]1OC(C)=O)C2(C)C | 34% | 7.9 | 12.8 | 84.3 µg/mL | Not Active
6 | CC(=O)OC/C1=C\C[C@H]2[C@@H](/C=C(\C)C(=O)[C@@]3(OC(C)=O)C[C@H](C)[C@H](OC(=O)c4ccccc4)[C@@H]3[C@H]1OC(C)=O)C2(C)C (relative stereo) | 15% | 6.1 | 4.36 | 248 µg/mL | Not Active
